Assay results: patent US6855711B1, “Pharmaceutical compositions comprising iron chelators for the treatment of neurodegenerative disorders and some novel iron chelators” (Yeda Research and Development Co. Ltd., priority 1999, dated 2005)
Entries after “also recorded” stand apart in the source; their conditions may differ. Like-named read-outs stand apart in the source and are kept apart here. Marks after values point to notes of the source that are not given here.

Assays:
[1] = test system: iron-induced lipid peroxidation (MDA formation) in rat brain cortex homogenates; experiment: Prevention of iron-induced lipid peroxidation (MDA formation, TBA method) in rat brain cortex homogenates; type: biochemical; conditions: 10^−3M chelator; for reduction of iron-induced MDA formation: 10^−4M ferric chloride
Procedure: The ability of the compounds of the invention to prevent lipid peroxidation in brain tissue was first screened in rat brain homogenates in vitro by a method involving the detection of free radicals performed by […] and measurement of the MDA formation, as described by D. Ben-Shachar et al. (1991) J. Neurochem. 57: 1609-14. In this method, brain cortex homogenates are prepared in sucrose and incubated alone to determine basal lipid peroxidation, or incubated after the addition of Fe2(SO4)3 or FeCl3 for Fe-induction of maximum free-radical formation, and in the presence of the iron chelators to be tested. After addition of TBA, lipid peroxidation is assayed by measurement of MDA formation.
Brain cortex homogenates (10% wt/vol) from male Wistar rats were prepared in 0.3M sucrose and incubated in air as described (Rehncrona et al., (1980) J. Neurochem. 34: 1630-38). Aliquots (0.1 ml) of homogenate were incubated alone at 30° C. for 90 min to determine basal lipid peroxidation, or incubated after the addition of 10^−4 Fe2(SO4), or FeCl3 and in the presence of 10^−3M iron chelator of formula I or II. For the assay, to 0.3 ml of the homogenate there were added 0.2 ml of 8% SDS, 1.5 ml of 20% acetic acid pH 3.0-3.5, 1.5 ml of 0.8% thiobarbituric acid (TBA) and 0.5 ml of H2O2×2, the mixture was incubated at 95° C. for 60 min, cooled and lipid peroxidation was assayed by measurement of malondialdehyde formation at 532 nm, as described (Dexter et al. (1989) J. Neurobiochem. 52: 381-89). Standard curve: 1,1,3,3-tetraethoxypropane 0.1-25 nmol in 0.3 ml.
In another experiment, the Compounds 3, 7, 9-17 and 26 were examined for their ability to inhibit lipid peroxidation in vitro by measuring their capability to inhibit MDA formation in the presence of 10^−4M FeCl3 in rat brain homogenates. Ferric chloride(10^−4M)-induced lipid peroxidation, as measured by MDA formation in rat cerebral cortex homogenates, was inhibited to a different degree by 10^−3M of the various chelators.

[2] = test system: 6-OHDA-induced lesion of nigrostriatal dopamine neurons; experiment: Prevention of 6-OHDA-induced toxicity in rats (striatal biogenic amines and metabolites by HPLC); type: in vivo, rat
Procedure: Male Sprague-Dawley rats, weighing 230-270 g, were housed in a controlled-temperature room with a standardized dark-light schedule (12/12 h) for 4 weeks. Rats were anesthetized with a mixture of 15 mg/kg of pentobarbital and 60 mg/kg of chloral hydrate. 6-OHDA (250 μg in 5 μl of 0.9% NaCl containing 0.2% ascorbic acid), the chelator 3 or 15 (200 μg in 5 μl), a combination of both (the chelator 3 or 15 15 min before 6-OHDA), or saline (5 μl) (control) was injected into the right cerebral ventricle using stereotactic techniques. The coordinates with bregma as the reference were D 0.8 mm, L 1.3 mm, and V 3.6 mm according to the atlas of Paxinos and Watson. Pargyline (50 mg/kg i.p.) and desmethylimipramine-HCl (25 mg/kg i.p.) were administered to all the rats 60 min before intracerebroventricular injection. Pargyline inhibits monoamine oxidase and thereby enhances the toxicity of 6-OHDA, and desmethylimipramine provides protection for central noradrenergic neurons from the toxin. All the animals received a daily injection of isotonic glucose (4 ml/day i.p.) until they regained their original body weight. Behavioral tests were performed 4 weeks after operation, commencing between 8 and 10 a.m. The rats were killed after the behavioral studies. Desferal was obtained from Ciba Geigy, and other chemicals were from Sigma (St. Louis, Mo., U.S.A.).
Norepinephrine (NE), DA, and metabolite levels were measured as follows: four weeks postoperatively, rats were killed by decapitation, and the brains were rapidly removed. The striata were dissected on an ice-chilled glass plate and quickly frozen in liquid nitrogen. The endogenous levels of NE, DA, 3,4-dihydroxyphenylacetic acid (DOPAC), and homovanillic acid (HVA) were determined by HPLC with electrochemical detection (Ben-Shachar et al. (1991) Eur. J. Pharmacol. 202:177-83). All data are expressed as mean±SEM values. Statistical analysis was carried out by analysis of variance with multiple comparisons followed by Student's t test.
Striatal dopamine and its metabolites DOPAC and HVA concentrations, which were determined by HPLC, served as a criteria for the extent of the damage caused by 6-OHDA in the presence or absence of the iron chelators. […] Dopamine turnover was normal in rats pretreated with iron chelators (Table 1).
Based on confirmation properties of the two iron chelators 3 and 15, it was considered that Compound 15 has a better chance to cross the blood-brain-barrier (BBB) and the studies were continued with Compound 15. In order to decrease to minimum the possibility of a direct interaction between the chelator and the toxin as a cause for the protection, and to try to find a smaller effective dose of the chelator, 1 μg Compound 15 was injected intraventricularly prior to the injection of 250 μg 6-OHDA.
The main goal at this stage of research was to find out whether Compound 15 given peripherally would be able to prevent 6-OHDA-induced toxicity. In other words the question was whether the chelator will stay stable in the periphery, cross the BBB and […]. Control group received phosphate buffer pH−6.4 0.1M. On the 11th day, the rats of both groups were injected intraventricularly with 250 μg 6-OHDA.

[3] = test system: 6-OHDA-induced dopaminergic neuron degeneration; conditions: cited from earlier work
[4] = Table 1: 200 μg chelator intraventricular prior to 250 μg 6-OHDA (Comb.), 6-OHDA = 250 μg 6-OHDA alone
[5] = Table 1: 200 μg chelator intraventricular prior to 250 μg 6-OHDA (Comb.), 6-OHDA = 250 μg 6-OHDA alone, mean±SEM
[6] = Table 2: 1 μg chelator 15 intraventricular prior to 250 μg 6-OHDA (Comb.), 6-OHDA = 250 μg 6-OHDA alone
[7] = Table 3: chelator 15 5 mg/Kg/day i.p. for 10 days + 250 μg 6-OHDA intraventricular (Comb.), 6-OHDA = 250 μg 6-OHDA without chelator
[8] = intracerebroventricular 6-OHDA (250 μg)

## O=C(CCC(CN(CC(=O)OCc1ccccc1)CC(=O)OCc1ccccc1)N(CC(=O)OCc1ccccc1)CC(=O)OCc1ccccc1)NCCN1CCN(C(=O)OCc2ccccc2)CC1 (stereo not shown) [Compound 1, N-[2-(4-carbobenzoxypiperazin-1-yl)ethyl]-4,5-bis[bis(benzyloxycarbonylmethyl)amino]valeramide]
[1]
  reduction of iron-induced MDA formation: ~50%

## CC(=O)c1cc(CN2CCN(CCO)CC2)ccc1O [Compound 5, 2-acetyl-4-[4-(2-hydroxyethyl)piperazin-1-yl-methyl]phenol]
other
  melting point: 72 to 75 °C

## NCCc1cc(O)c(O)cc1O [Compound 6-OHDA, 6-hydroxydopamine]
[2]; 250 μg 6-OHDA intraventricular, rats
  decrease in striatal dopamine levels: 80%
[2]; [4]
  (DOPAC + HAV)/DA (dopamine turnover): 0.202
[2]; [5]
  5-HIAA in rat striatum: 3.76 ± 0.20 pmol/mg tissue
  5-HT in rat striatum: 4.00 ± 0.35 pmol/mg tissue
  DA in rat striatum: 19.93 ± 5.0^c pmol/mg tissue
  DOPAC in rat striatum: 1.79 ± 0.25^a pmol/mg tissue
  HVA in rat striatum: 2.24 ± 0.23 pmol/mg tissue
  NE in rat striatum: 5.0 ± 0.1 pmol/mg tissue
[2]; [6]
  5-HIAA in rat striatum: 6.29 ± 0.65 pmol/mg tissue
  5-HT in rat striatum: 3.22 ± 0.42 pmol/mg tissue
  (DOPAC + HAV)/DA (dopamine turnover): 0.14
  DA in rat striatum: 12.93 ± 3.3^a pmol/mg tissue
  DOPAC in rat striatum: 0.76 ± 0.11^a pmol/mg tissue
  HVA in rat striatum: 1.10 ± 0.21^a pmol/mg tissue
  NE in rat striatum: 1.1 ± 0.1 pmol/mg tissue
[2]; [7]
  5-HIAA in rat striatum: 1.57 ± 0.07 pmol/mg tissue
  5-HT in rat striatum: 2.60 ± 0.15 pmol/mg tissue
  (DOPAC + HAV)/DA (dopamine turnover): 0.16
  DA in rat striatum: 9.69 ± 2.63^a pmol/mg tissue
  DOPAC in rat striatum: 0.51 ± 0.11^A pmol/mg tissue
  HVA in rat striatum: 1.05 ± 0.19^A pmol/mg tissue
  NE in rat striatum: 1.22 ± 0.04 pmol/mg tissue
[3]; [8]
  increase in DA release as indicated by the HVA/DA ratio: 2.5 fold
  reduction in striatal tissue content of DOPAC: 79%
  reduction in striatal tissue content of HVA: 70%
  reduction in striatal tissue content of dopamine (DA): 88%

## CC(=O)N(O)CCCCCNC(=O)CCC(=O)N(O)CCCCCNC(=O)CCC(=O)N(O)CCCCCN [desferrioxamine]
[3]; 13 ng i.c.v. prior to 6-OHDA (250 μg)
  protection against the 6-OHDA-induced reduction in striatal DA content: 100%
[3]; 130 ng i.c.v. prior to 6-OHDA (250 μg)
  protection against the 6-OHDA-induced reduction in striatal DA content: ~60%
[3]; desferrioxamine i.c.v. prior to 6-OHDA
  DA release (HVA/DA ratio), in words: normalization of DA release
[3]; desferrioxamine-pretreated rats, 6-OHDA
  dopaminergic-related behavioral responses (spontaneous movements in a novel environment, rearing), in words: almost normal behavioral responses
[3]; rats
  protection against 6-OHDA-induced lesions of nigrostriatal dopamine neurons, in words: protected

## Cl.Cl.Cl.Oc1ccc(CN2CCNCC2)c2cccnc12
other
  melting point: 232 to 234 °C (dec.)

## Cl.Cl.Cl.Cl.Oc1ccc(CN2CCN(Cc3ccc(O)c4ncccc34)CC2)c2cccnc12
other
  melting point: 227 to 228 °C

## OCCN1CCN(Cc2ccc(O)c3ncccc23)CC1 [Compound 15, 5-(4-(2-hydroxyethyl)piperazin-1-ylmethyl)-8-hydroxyquinoline]
[2]; 1 μg intraventricular prior to 250 μg 6-OHDA
  prevention of 6-OHDA-induced lesion, in words: effective in preventing 6-OHDA-induced lesion
[2]; 200 μg chelator intraventricular prior to 250 μg 6-OHDA
  prevention of 6-OHDA-induced reduction in striatal dopamine and DOPAC concentrations, in words: efficiently prevented
[2]; 5 mg/Kg i.p. for 10 days before intraventricular 250 μg 6-OHDA
  protection against 6-OHDA toxicity, in words: Partial but significant protection; also recorded: partially protected
[2]; [4]
  (DOPAC + HAV)/DA (dopamine turnover): 0.15
[2]; [5]
  5-HIAA in rat striatum: 4.48 ± 0.38 pmol/mg tissue
  5-HT in rat striatum: 4.24 ± 0.43 pmol/mg tissue
  DA in rat striatum: 33.8 ± 4.3 pmol/mg tissue
  DOPAC in rat striatum: 2.45 ± 0.25 pmol/mg tissue
  HVA in rat striatum: 2.67 ± 0.33 pmol/mg tissue
  NE in rat striatum: 5.01 ± 0.1 pmol/mg tissue
[2]; [6]
  5-HIAA in rat striatum: 4.98 ± 0.46 pmol/mg tissue
  5-HT in rat striatum: 4.84 ± 0.45 pmol/mg tissue
  (DOPAC + HAV)/DA (dopamine turnover): 0.08
  DA in rat striatum: 62.9 ± 3.13 pmol/mg tissue
  DOPAC in rat striatum: 2.49 ± 0.13 pmol/mg tissue
  HVA in rat striatum: 2.77 ± 0.25 pmol/mg tissue
  NE in rat striatum: 1.3 ± 0.12 pmol/mg tissue
[2]; [7]
  5-HIAA in rat striatum: 1.59 ± 0.16 pmol/mg tissue
  5-HT in rat striatum: 2.6 ± 0.31 pmol/mg tissue
  (DOPAC + HAV)/DA (dopamine turnover): 0.15
  DA in rat striatum: 24.4 ± 4.4^ab pmol/mg tissue
  DOPAC in rat striatum: 1.4 ± 0.25 pmol/mg tissue
  HVA in rat striatum: 2.28 ± 0.75 pmol/mg tissue
  NE in rat striatum: 1.21 ± 0.4 pmol/mg tissue
[1]; 10^−4M FeCl3, rat cerebral cortex homogenates
  inhibition of MDA formation (lipid peroxidation), in words: most effective
[1]
  reduction of iron-induced MDA formation: ~50%
